Experiment in all cases: ≥ marks a high value that may be exact or a test limit, other limits are often not marked, values filed in µg/mL are converted to µM
Assay [1] has as its system Aspergillus flavus KCTC 9471.
In assay [2] the test system is Aspergillus fumigatus KCTC 6145.
Assay [3] has as its system Bacillus subtilis.
Assay [4] deals with Botrytis cinerea.
Assay [5] concerns Candida albicans KCTC 7270.
Assay [6] deals with Escherichia coli O157:H7 ATCC 43895.
Assay [7] relates to Escherichia coli.
Assay [8] concerns Fusarium verticillioides.
For assay [9], the system named is Listeria monocytogenes KCTC 3710.
The subject of assay [10] is Proteus vulgaris.
The test system of assay [11] is Pseudomonas aeruginosa.
In assay [12] the test system is Saccharomyces cerevisiae.
Assay [13] concerns Salmonella typhimurium.
Assay [14] has as its system Staphylococcus aureus.
Assay [15] concerns Staphylococcus epidermidis.
Assay [16] has as its system Trichosporon beigelii.
Assay [17] relates to Escherichia coli K-12 594.
Assay [18] has as its system Staphylococcus aureus ATCC 6538P.
The test system of assay [19] is Staphylococcus aureus SR1550.
The test system of assay [20] is Aspergillus niger CECT 2694.
The test system of assay [21] is Fusarium oxysporum f. sp. lycopersici ATCC 201829.
For assay [22], the system named is Penicillium expansum EPS 26.
In assay [23] the test system is Rhizopus stolonifer CECT 2344.
Assay [24] has as its system Candida albicans NCTC 3179.
Assay [25] deals with Escherichia coli ATCC 25922.
Assay [26] relates to Staphylococcus aureus ATCC 25923.
Assay [27] concerns Fusarium solani MTCC 10158.
Assay [28] concerns Aspergillus brasiliensis ATCC 16404.
The test system of assay [29] is Candida albicans ATCC 10231.
In assay [30] the test system is Enterococcus faecalis ATCC 29212.
The subject of assay [31] is Pseudomonas aeruginosa ATCC 27853.
In assay [32] the test system is Staphylococcus aureus ATCC 29213.
Assay [33] relates to Micrococcus luteus DSM 20030.
Assay [34] deals with Salmonella typhimurium TA100.
The subject of assay [35] is Bacillus subtilis KCTC 1998.
The subject of assay [36] is Listeria monocytogenes ATCC 3710.
Assay [37] concerns Proteus vulgaris KCTC 2433.
Assay [38] relates to Pseudomonas aeruginosa ATCC 15692.

The structures appear in SMILES notation. ≈ marks a conversion by molar mass, not a printed value. Where “and” joins values, the source holds several entries; their conditions need not be identical. Equal entries are not always repeated.

Consider eight compounds from DBAASP.

For orientation: MIC means the smallest concentration in the dilution series that meets the test's criterion for growth inhibition. Low values mean a more susceptible organism, high ones a less susceptible organism.

Regarding `CC[C@H](C)[C@H](NC(=O)[C@H](CCCCN)NC(=O)[C@H](CO)NC(=O)[C@H](Cc1ccccc1)NC(=O)[C@H](CC(C)C)NC(=O)[C@H](CCCCN)NC(=O)[C@H](CCC(=O)O)NC(=O)[C@H](CC(C)C)NC(=O)[C@H](CCCN=C(N)N)NC(=O)[C@H](CCCCN)NC(=O)[C@H](Cc1ccccc1)NC(=O)[C@@H](NC(=O)[C@H](CCCCN)NC(=O)[C@H](CCCCN)NC(=O)[C@H](C)N)C(C)C)C(=O)N[C@@H](Cc1ccccc1)C(=O)N[C@@H](CC(N)=O)C(=O)N[C@@H](Cc1ccccc1)C(=O)N[C@@H](CCCCN)C(N)=O` [AKKVFKRLEKLFSKIFNFK], the minimum inhibitory concentration (MIC) in [1] is no less than 50 µM; in [2], no less than 35.4 µM; in assay [3], 1.56 µM (≈ 3.7 µg/mL); in [4], 12.5 µM (≈ 29.6 µg/mL); in assay [5], 25 µM (≈ 59.3 µg/mL); in assay [6], 6.25 µM (≈ 14.8 µg/mL). Also, the minimum inhibitory concentration (MIC) in assay [7] amounted to 3.13 µM (≈ 7.42 µg/mL); in assay [8], 12.5 µM (≈ 29.6 µg/mL); in assay [9], 0.78 µM (≈ 1.85 µg/mL); in assay [10] it was 3.13 µM (≈ 7.42 µg/mL); in assay [11] it was 6.25 µM (≈ 14.8 µg/mL); in assay [12] it was 25 µM (≈ 59.3 µg/mL). Besides, the minimal inhibitory concentration (MIC) is 0.39 µM (≈ 0.925 µg/mL) in assay [13], 3.13 µM (≈ 7.42 µg/mL) in assay [14], 6.25 µM (≈ 14.8 µg/mL) in [15] and 3.13 µM (≈ 7.42 µg/mL) in assay [16].

For the compound `CC(C)C[C@H](NC(=O)[C@H](Cc1cnc[nH]1)NC(=O)[C@H](CC(C)C)NC(=O)[C@H](CC(C)C)NC(=O)[C@H](CC(C)C)NC(=O)[C@H](CC(C)C)NC(=O)[C@H](CC(C)C)NC(=O)[C@H](Cc1cnc[nH]1)NC(=O)[C@H](CC(C)C)NC(=O)[C@@H](N)Cc1cnc[nH]1)C(=O)N[C@@H](Cc1cnc[nH]1)C(N)=O` [HLHLLLLLHLH], the MIC worked out at 25.8 µM (≈ 35 µg/mL) in assay [17], 11.8 µM (≈ 16 µg/mL) in [18] and 25.8 µM (≈ 35 µg/mL) in assay [19].

For the compound `CC[C@H](C)[C@H](NC(=O)[C@H](CCCCN)NC(=O)[C@H](CCCCN)NC(=O)[C@H](Cc1ccccc1)NC(=O)[C@H](CC(C)C)NC(=O)[C@H](CCCCN)NC(=O)[C@@H](N)Cc1c[nH]c2ccccc12)C(=O)N[C@@H](CC(C)C)C(=O)N[C@@H](CCCCN)C(=O)N[C@H](C(=O)N[C@@H](CC(C)C)C(=O)O)C(C)C` [WKLFKKILKVL], the minimal inhibitory concentration (MIC) was 22.4 µM (≈ 31.7 µg/mL) in [20], 22.4 µM (≈ 31.7 µg/mL) in assay [21], no less than 100 µM in assay [22] and no less than 100 µM in assay [23].

For the compound `CC[C@H](C)[C@H](NC(=O)[C@H](CCCCN)NC(=O)[C@@H](NC(=O)[C@@H](NC(=O)[C@H](C)NC(=O)[C@@H]1CCCN1C(=O)[C@H](CC(C)C)NC(=O)[C@H](Cc1c[nH]c2ccccc12)NC(=O)[C@@H](N)[C@@H](C)O)C(C)C)[C@@H](C)CC)C(=O)N[C@@H](CCC(N)=O)C(=O)N[C@@H](C)C(=O)N[C@@H](Cc1cnc[nH]1)C(=O)N[C@@H](Cc1c[nH]c2ccccc12)C(=O)N[C@@H](CCCN=C(N)N)C(=O)NCC(=O)N[C@@H](Cc1ccc(O)cc1)C(=O)N[C@@H](CCCN=C(N)N)C(=O)N[C@@H](CCC(N)=O)C(=O)N[C@@H](CCCN=C(N)N)C(=O)N[C@@H](CCCCN)C(=O)N[C@H](C(=O)N[C@@H](Cc1ccc(O)cc1)C(=O)N[C@@H](CC(C)C)C(=O)O)[C@@H](C)CC` [TWLPAVIKIQAHWRGYRQRKIYL], the minimal inhibitory concentration (MIC) in assay [24] turned out to be 24.8 µM (≈ 72 µg/mL); in assay [25] it was 1.97 µM (≈ 5.7 µg/mL); in assay [26], 1.66 µM (≈ 4.8 µg/mL).

On to `CC(C)C[C@H](NC(=O)[C@H](C)NC(=O)[C@H](CCCCN)NC(=O)[C@H](CC(C)C)NC(=O)[C@H](CCCCN)NC(=O)[C@H](CCCN=C(N)N)NC(=O)[C@H](CCCN=C(N)N)NC(=O)[C@H](Cc1c[nH]c2ccccc12)NC(=O)[C@H](C)N)C(=O)N[C@@H](C)C(=O)N1CCC[C@H]1C(=O)N[C@@H](C)C(=O)N[C@@H](CCCCN)C(=O)N[C@@H](CCCCN)C(=O)N[C@@H](C)C(=O)N[C@@H](CCCCN)C(=O)N[C@H](C(=O)O)C(C)C` [AWRRKLKALAPAKKAKV], for which the MIC in [27] is 22.4 µM and ≥ 50 µM.

Turning to `CC[C@H](C)[C@H](NC(=O)[C@H](CCCCN)NC(=O)CNC(=O)[C@@H]1CCCN1C(=O)[C@H](Cc1cnc[nH]1)NC(=O)[C@H](CC(C)C)NC(=O)[C@H](CC(C)C)NC(=O)[C@H](Cc1ccc(O)cc1)NC(=O)[C@H](CS)NC(=O)CN)C(=O)N[C@@H](CS)C(=O)N[C@@H](Cc1ccc(O)cc1)C(=O)O` [GCYLLHPGKICY], the minimum inhibitory concentration (MIC) in assay [28] was no less than 64 µM; in assay [29] it was greater than 64 µM; in assay [30] it was greater than 64 µM; in assay [25] it was greater than 64 µM; in [31], greater than 64 µM; in assay [32], greater than 64 µM.

As to `CC(C)C[C@H](NC(=O)CNC(=O)[C@H](CCCCN)NC(=O)[C@H](CS)NC(=O)[C@@H](NC(=O)[C@H](CCCN=C(N)N)NC(=O)[C@H](CCCCN)NC(=O)[C@H](CC(N)=O)NC(=O)[C@H](CC(N)=O)NC(=O)[C@H](CCC(N)=O)NC(=O)[C@H](CCCN=C(N)N)NC(=O)[C@@H](NC(=O)[C@H](CS)NC(=O)[C@@H](N)CCCCN)C(C)C)C(C)C)C(=O)N[C@@H](CCCN=C(N)N)C(=O)N[C@@H](CCCCN)C(=O)N[C@@H](CCCN=C(N)N)C(=O)N[C@@H](CC(C)C)C(=O)N[C@@H](CCCN=C(N)N)C(=O)N[C@@H](CCCCN)C(=O)N[C@@H](Cc1ccccc1)C(=O)N[C@@H](CCCN=C(N)N)C(=O)N[C@@H](CC(N)=O)C(=O)N[C@@H](CCCCN)C(N)=O` [KCVRQNNKRVCKGLRKRLRKFRNK], the MIC is 13.5 µM (≈ 40.8 µg/mL) in assay [33] and 12.6 µM (≈ 38.3 µg/mL) in assay [34].

In the case of `CC[C@H](C)[C@H](NC(=O)[C@H](Cc1cnc[nH]1)NC(=O)[C@H](Cc1cnc[nH]1)NC(=O)[C@@H](NC(=O)[C@H](CC(C)C)NC(=O)[C@H](Cc1cnc[nH]1)NC(=O)CNC(=O)[C@H](CCCCN)NC(=O)CNC(=O)[C@H](Cc1cnc[nH]1)NC(=O)[C@H](CCCCN)NC(=O)[C@@H](NC(=O)[C@H](CO)NC(=O)CNC(=O)[C@H](CCCCN)NC(=O)[C@H](Cc1ccccc1)NC(=O)[C@H](CCCN=C(N)N)NC(=O)[C@H](CCCCN)NC(=O)[C@@H](N)Cc1ccccc1)C(C)C)C(C)C)C(=O)NCC(=O)N[C@H](C(=O)N[C@@H](C)C(=O)N[C@@H](CC(C)C)C(N)=O)C(C)C` [FKRFKGSVKHGKGHLVHHIGVAL], the MIC was 4 µM (≈ 10.2 µg/mL) in assay [35]; 2 µM and 4 µM in assay [25]; 8 µM and 4 µM in assay [36]; 4 µM and 8 µM in assay [37]; ≥ 32 µM and 16 µM in assay [38]; 8 µM and 16 µM in assay [32].
